Measured values from patent publication US5089623A, “Certain imidate insecticides” (Imperial Chemical Industries Plc, priority 1990, dated 1992).

Legend:
Format in all cases: in vivo
[1] = tested on: Cabbage Looper [Trichoplusia ni (Hubner)]; assay: Cabbage looper test (CL); conditions: second-instar larvae, 3-5 days, percent in solution
[2] = tested on: Maize weevil [Sitophilus Zeamais (Motschulsky)]; assay: Maize weevil test (MW); conditions: adult weevils, treated corn seeds, 48 hours, percent in solution
Experimental: The compounds in Tables 1 and 2 above were tested for insecticidal activity using the following testing procedures. LC50 values, based on the results of these tests and calculated according to dosage-mortality curves, are expressed in Table 3.
Maize weevil [Sitophilus Zeamais (Motschulsky)]
Test compounds were diluted in a 50:50 acetone:water solution. Four corn seeds [Zea mays (L.)] which had been immersed in test solutions for 2-3 seconds and allowed to dry were placed in containers together with 10 adult weevils. The containers were covered and kept at a temperature of about 25° C. Mortality was recorded after 48 hours. Test concentrations ranged from 0.01% down to that at which 50% mortalilty occurred. The LC50 values are expressed below in Table 3 under the heading "MW" in terms of percent of the test compound in solution.

[3] = tested on: Tobacco Budworm [Heliothis virescens (Fabricius)] eggs; assay: Tobacco budworm egg test (TBW-E); conditions: percent in solution
[4] = tested on: Housefly [Musca domestica]; assay: Housefly insecticidal test (HF); conditions: per 25 female houseflies, 48 hours

| Compound | LC50 CL [1] [%] | LC50 MW [2] [%] | LC50 TBW E [3] [%] | LC50 HF [4] [µg] |
| --- | --- | --- | --- | --- |
| Clc1ccc(N=C(OCc2cccc(Oc3ccccc3)c2)C2CCC2)cc1 [Compound 8] | 0.01 | > 0.01 | > 0.01 | 50 |
| CC(C)(C)C(=Nc1cccc(C(F)(F)F)c1)OCc1cccc(Oc2ccccc2)c1 [Compound 88] | 0.018 | > 0.01 | > 0.1 | > 100 |
| Fc1ccc(Oc2cccc(COC(=Nc3ccc(F)c(Cl)c3)C3CC3)c2)cc1 [Compound 116] | 0.00025 | > 0.01 | 0.05 | 15 |
| CCc1ccc(N=C(OCc2cccc(Oc3ccccc3)c2)C(C)(C)C)cc1 [Compound 163] | 0.004 | > 0.01 | > 0.1 | > 100 |
| CC(C)C(=Nc1ccc(F)c(Cl)c1)OCc1cccc(Oc2cccc(Cl)c2)c1 [Compound 203] | 0.0025 | > 0.01 | 0.06 | 43 |
| CC(C)C(=Nc1cc(F)c(Cl)cc1Cl)OCc1ccc(F)c(Oc2ccc(F)cc2)c1 [Compound 292] | 0.00075 | > 0.01 | 0.05 | 41 |
| Fc1ccc(Oc2cccc(COC(=Nc3cccc(C(F)(F)F)c3)C3CC3)c2)cc1 [Compound 294] | 0.017 | > 0.01 | > 0.1 | > 100 |
| CC(C)C(=Nc1ccc(F)c(Br)c1)OCc1ccc(F)c(Oc2ccccc2)c1 [Compound 299] | 0.0005 | > 0.01 | 0.017 | 8 |
| CC(C)C(=Nc1ccc(C(C)(C)C)cc1)OCc1ccc(F)c(Oc2ccc(Cl)cc2)c1 [Compound 301] | 0.008 | > 0.01 | > 0.1 | > 100 |
| CC(C)C(=Nc1cccc([N+](=O)[O-])c1)OCc1cccc(Oc2ccccc2)c1 [Compound 302] | 0.003 | > 0.01 | > 0.1 | 15 |
| CC(C)C(=Nc1c(F)c(F)cc(F)c1F)OCc1cccc(Oc2ccc(F)cc2)c1 [Compound 304] | 0.0024 | > 0.01 | > 0.1 | > 100 |
| CC(Br)C(=Nc1ccc2c(c1)OCO2)OCc1cccc(Oc2ccccc2)c1 (stereo not drawn) [Compound 306] | 0.005 | > 0.01 | 0.1 | > 100 |
| CC(C)C(=Nc1ccc([N+](=O)[O-])c(C(F)(F)F)c1)OCc1cccc(Oc2ccccc2)c1 [Compound 307] | 0.002 | > 0.01 | 0.08 | > 100 |
| CC(C)C(=Nc1ccc(F)c(I)c1)OCc1ccc(F)c(Oc2ccccc2)c1 [Compound 334] | 0.0007 | > 0.01 | 0.013 | 9 |
| CC(C)c1ccc(N=C(OCc2cccc(Oc3ccccc3)c2)C2CCC2)cc1 [Compound 339] | 0.017 | > 0.01 | > 0.1 | > 100 |
| CC(C)C(=Nc1ccc(Cl)c(C(F)(F)F)c1)OCc1ccc(F)c(Oc2ccc(F)cc2)c1 [Compound 340] | 0.00037 | 0.0069 | 0.04 | 34 |
| CC(C)C(=Nc1cccc(Cl)c1)OCc1ccc(F)c(Oc2ccc(F)cc2)c1 [Compound 341] | 0.0005 | > 0.01 | 0.023 | 4 |
| CC(C)C(=Nc1cccc(F)c1)OCc1ccc(F)c(Oc2ccc(F)cc2)c1 [Compound 342] | 0.0008 | > 0.01 | 0.04 | 4.1 |
| Cc1ccc(Oc2cccc(COC(=Nc3ccc(C(C)(C)C)cc3)C(C)C)c2)cc1 [Compound 344] | 0.024 | > 0.01 | > 0.1 | > 100 |
| COc1ccc(Oc2cccc(COC(=Nc3ccc(C(C)(C)C)cc3)C(C)C)c2)cc1 [Compound 345] | 0.018 | > 0.01 | > 0.1 | > 100 |
| CCOc1ccc(N=C(OCc2cccc(Oc3ccccc3)c2)C(C)C)cc1Cl [Compound 368] | 0.002 | > 0.01 | 0.04 | < 100 |

| Compound | LC50 CL [1] [%] | LC50 MW [2] [%] | LC50 TBW E [3] [%] | LC50 HF [4] [µg] |
| --- | --- | --- | --- | --- |
| CCOc1ccc(N=C(OCc2cccc(Oc3ccccc3)c2)C(C)C)cc1 [Compound 371] | 0.0022 | > 0.01 | > 0.1 | < 100 |
| CCOc1ccc(N=C(OCc2ccc(F)c(Oc3ccc(Cl)cc3)c2)C(C)C)cc1 [Compound 372] | > 0.1 | > 0.01 | > 0.1 | > 100 |
| CCOc1ccc(N=C(OCc2ccc(F)c(Oc3ccccc3)c2)C(C)C)cc1 [Compound 373] | > 0.1 | > 0.01 | > 0.1 | < 100 |
| CC(C)C(=Nc1ccc(I)c(Cl)c1)OCc1cccc(Oc2ccc(F)cc2)c1 [Compound 374] | 0.00058 | > 0.01 | 0.02 | < 100 |
| CC(C)C(=Nc1ccc(F)c(Br)c1)OCc1ccc(F)c(Oc2ccc(Cl)cc2)c1 [Compound 379] | 0.00075 | > 0.01 | 0.02 | < 100 |
| CC(C)C(=Nc1ccc(Br)c(Br)c1)OCc1ccc(F)c(Oc2ccc(F)cc2)c1 [Compound 383] | 0.00029 | > 0.01 | 0.038 | < 100 |
| CC(C)C(=Nc1ccc(Br)c(Br)c1)OCc1ccc(F)c(Oc2ccccc2)c1 [Compound 384] | > 0.1 | > 0.01 | 0.025 | < 100 |
| CC(C)C(=Nc1ccc(I)c(Cl)c1)OCc1ccc(F)c(Oc2ccc(F)cc2)c1 [Compound 385] | > 0.1 | > 0.01 | > 0.1 | < 100 |
| CC(C)C(=Nc1cccc(Br)c1)OCc1ccc(F)c(Oc2ccc(Cl)cc2)c1 [Compound 386] | 0.0012 | > 0.01 | > 0.1 | < 100 |
| CC(C)C(=Nc1ccc(Cl)c(C(F)(F)F)c1)OCc1ccc(F)c(Oc2ccccc2)c1 [Compound 388] | 0.0012 | > 0.01 | > 0.1 | < 100 |
| CC(C)C(=Nc1cccc(I)c1)OCc1cccc(Oc2ccc(Cl)cc2)c1 [Compound 389] | 0.00069 | > 0.01 | > 0.1 | < 100 |
| CC(C)C(=Nc1cccc(Cl)c1)OCc1ccc(F)c(Oc2ccc(Cl)cc2)c1 [Compound 390] | 0.0021 | > 0.01 | 0.045 | < 100 |
| CC(C)C(=Nc1ccc(C#N)cc1)OCc1ccc(F)c(Oc2ccc(Cl)cc2)c1 [Compound 392] | 0.00034 | > 0.01 | 0.039 | < 100 |
| CC(C)C(=Nc1ccc(C#N)cc1)OCc1cccc(Oc2ccc(Cl)cc2)c1 [Compound 393] | 0.00037 | > 0.01 | > 0.1 | < 100 |
| CC(C)C(=Nc1ccc(C#N)cc1)OCc1ccc(F)c(Oc2ccc(F)cc2)c1 [Compound 394] | 0.00025 | > 0.01 | 0.05 | < 100 |
| CC(C)C(=Nc1ccc(F)c(Cl)c1F)OCc1ccc(F)c(Oc2ccc(Cl)cc2)c1 [Compound 395] | < 0.1 | 0.004 | 0.018 | 8.6 |
| Cc1cc(N=C(OCc2ccc(F)c(Oc3ccc(F)cc3)c2)C(C)C)ccc1F [Compound 396] | 0.0017 | > 0.01 | < 0.1 | < 100 |
| Cc1cc(N=C(OCc2cccc(Oc3ccc(Cl)cc3)c2)C(C)C)ccc1F [Compound 397] | 0.0019 | > 0.01 | < 0.1 | < 100 |
| CC(C)C(=Nc1ccc(F)c(Cl)c1)OC(C)c1cccc(Oc2ccccc2)n1 (stereo not drawn) [Compound 498] | 0.002 |  | > 0.1 | 49 |
| CC(C)C(=Nc1cccc(C(F)(F)F)c1)OC(C)c1cccc(Oc2ccccc2)n1 (stereo not drawn) [Compound 499] | 0.0024 |  | > 0.1 | 63 |
| COCc1c(F)c(F)c(COC(=Nc2ccc3c(c2)OCO3)C(C)C)c(F)c1F [Compound 501] | 0.00045 |  | > 0.1 | 20 |
